Data on one compound can be found in patent US20260373119A1, “NOVEL COMPOUND, AND COMPOSITION FOR PREVENTING OR TREATING HER2-POSITIVE CANCER, COMPRISING SAME” (EWHA UNIVERSITY - INDUSTRY COLLABORATION FOUNDATION, priority 2022, published 2026).

Assay [1] addresses MED23 wild-type (FLAG-tagged) (Homo sapiens, UniProt Q9ULK4). The assay can be described thus: LC-MS/MS protein-small molecule interaction, wild-type MED23. It counts as binding. Particulars: internal standard. The procedure: HEK293 cells were seeded in a […] and incubated until they reached 70-80% confluency. The cells were transfected with p3Xflag-myc-CMV26-MED23^WT and p3Xflag-myc-CMV26-MED23^D400A/H449G plasmids for 24 hours, followed by lysis to obtain protein extracts. To isolate the candidate compound (YK1) bound to MED23, total lysates were incubated with YK1 for 4 hours and subsequently subjected to pulldown using FLAG-agarose beads (Sigma Aldrich, USA). The precipitated beads were washed at least three times to completely remove unbound compounds. To separate the candidate compound from the precipitated MED23, 50 μL of the sample was extracted with 1 mL of acetonitrile and centrifuged at 13,000 rpm at 4 °C for 10 minutes. The supernatant (1,000 μL) from each sample was transferred to a new tube and dried under nitrogen gas at 37 °C. For YK1 analysis, the residue was dissolved in 50 μL of ACN and vortexed for 10 minutes. […] The mixture was then extracted with 450 μL of ACN by ultrasonic treatment and vortex mixing. The candidate compound bound to MED23 was finally analyzed using an Agilent 6460 triple quadrupole mass spectrometer (Agilent Technologies, USA).

Assay [2] relates to T47D (HER2-negative breast cancer cell line). The assay can be described thus: antiproliferative effect, T47D. It counts as cell-based. Particulars: Homo sapiens, 72 hours. The procedure: (§1) The antiproliferative effects were measured after treating Compounds 1 to 22 for 72 hours on HCT15 (HER2-positive colorectal cancer cell line), NCI-N87 (HER2-positive gastric cancer cell line), T47D (HER2-negative breast cancer cell line), and HeLa (HER2-negative cervical cancer cell line). As a result, strong antiproliferative effects were generally observed in the NCI-N87 cell line (Table 2).
(§2) The antiproliferative effects of the candidate compound, resulting from HER2 inhibition, were evaluated. Specifically, to confirm the anticancer effects of the candidate compound, cancer cells were seeded at a density of 10^4 cells/well in a 96-well cell culture plate for 20 hours. The cells were starved in serum-free media for 4 hours, followed by replacement with media containing the compound at specified concentrations. The cells were then incubated for 72 hours under conditions of 5% CO2 at 37 °C. Cell viability was determined by adding 5 μL of EZ-CytoX to each well and measuring absorbance at 450 nm. The measurements were performed using an ELISA Microplate Reader (VersaMax, Molecular Devices).

Assay [3] concerns NCI-N87 (HER2-positive gastric cancer cell line). Nature of the assay: antiproliferative effect, NCI-N87. The format is cell-based. Particulars: Homo sapiens, NCI-N87; 72 hours; HER2-positive. As for the experimental part:
as §1, §2

The subject of assay [4] is HeLa (HER2-negative cervical cancer cell line). The assay can be described thus: antiproliferative effect, HeLa. It counts as cell-based. Particulars: Homo sapiens, 72 hours. The procedure:
as §1, §2

The target in assay [5] is T1, ELF3-MED23 protein-protein interaction (Homo sapiens, UniProt Q9ULK4).
T1 construct: followed by the addition of either the candidate compound or MED23 protein constructs; endogenous in cells; host or cells: 293T kidney cells (MED23 endogenous; GAL4-ELF3 transfected)
T1 sequence (Q9ULK4 1-1368): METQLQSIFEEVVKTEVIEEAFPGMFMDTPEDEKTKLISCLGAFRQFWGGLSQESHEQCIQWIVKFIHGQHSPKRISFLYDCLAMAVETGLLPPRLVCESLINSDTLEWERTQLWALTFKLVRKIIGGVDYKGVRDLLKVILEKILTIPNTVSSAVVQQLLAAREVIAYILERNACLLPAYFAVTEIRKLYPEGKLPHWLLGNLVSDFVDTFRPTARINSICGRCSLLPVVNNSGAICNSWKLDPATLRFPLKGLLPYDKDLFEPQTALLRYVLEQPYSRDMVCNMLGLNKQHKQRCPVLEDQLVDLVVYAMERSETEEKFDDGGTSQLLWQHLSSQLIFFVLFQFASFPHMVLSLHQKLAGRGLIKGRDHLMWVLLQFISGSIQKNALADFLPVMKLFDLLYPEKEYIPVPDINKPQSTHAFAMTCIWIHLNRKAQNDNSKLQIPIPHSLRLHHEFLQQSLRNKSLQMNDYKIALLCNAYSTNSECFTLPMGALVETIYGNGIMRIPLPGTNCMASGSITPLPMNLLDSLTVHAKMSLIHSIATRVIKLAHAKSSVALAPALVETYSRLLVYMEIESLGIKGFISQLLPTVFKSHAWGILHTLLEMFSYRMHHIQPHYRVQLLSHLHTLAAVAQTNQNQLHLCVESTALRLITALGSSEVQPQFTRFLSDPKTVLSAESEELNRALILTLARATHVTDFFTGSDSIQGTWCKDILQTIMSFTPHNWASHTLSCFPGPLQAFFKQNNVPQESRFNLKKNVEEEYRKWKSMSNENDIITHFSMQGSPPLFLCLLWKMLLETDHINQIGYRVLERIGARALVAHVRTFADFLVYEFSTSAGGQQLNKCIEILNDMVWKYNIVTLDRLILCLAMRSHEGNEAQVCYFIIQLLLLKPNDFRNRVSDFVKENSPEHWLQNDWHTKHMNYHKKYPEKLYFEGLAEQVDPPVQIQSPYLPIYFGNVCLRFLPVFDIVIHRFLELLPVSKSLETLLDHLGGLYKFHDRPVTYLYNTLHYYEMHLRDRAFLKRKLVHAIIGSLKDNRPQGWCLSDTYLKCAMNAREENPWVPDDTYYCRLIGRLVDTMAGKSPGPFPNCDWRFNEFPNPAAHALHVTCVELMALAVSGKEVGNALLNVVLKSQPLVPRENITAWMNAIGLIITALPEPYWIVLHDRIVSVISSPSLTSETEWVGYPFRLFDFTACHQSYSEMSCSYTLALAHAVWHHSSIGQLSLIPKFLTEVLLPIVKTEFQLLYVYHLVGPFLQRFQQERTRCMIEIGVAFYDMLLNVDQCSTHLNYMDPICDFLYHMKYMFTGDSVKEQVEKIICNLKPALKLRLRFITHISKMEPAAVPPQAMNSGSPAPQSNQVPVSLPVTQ
The assay can be described thus: SEAP reporter assay, ELF3-MED23 PPI inhibition (293T kidney cells). It counts as cell-based. Particulars: HEK-293T; 10 μM. As for the experimental part: To verify whether the D400 and H449 residues play a critical role in the ELF3-MED23 protein-protein interaction, a SEAP assay was performed. Specifically, 293T kidney cells were seeded at a density of 5×10^3 cells/well in a 96-well microplate (SPL, Korea) and cultured overnight. Subsequently, the cells were co-transfected with 100 ng of each plasmid using transfection-optimized medium (Welgene, Korea). The plasmids used included the SEAP reporter gene (pG5IL2SX) and GAL4-ELF3 expression vector (pBJ GAL4-ELF3). For transfection, the cells were incubated with WelFectQ (Welgene, Korea) for 3 hours, followed by the addition of either the candidate compound or MED23 protein constructs (pcDNA MED23^WT, K397A, D400A, H449G, and D400A/H449G). The treated cells were incubated for 12 hours. The candidate compound was added in an incubator at 5% CO2 and 37 °C, and the plate was incubated at 65 °C for 3 hours to inactivate all enzymes except SEAP (Secreted Alkaline Phosphatase). A mixture comprising 100 μL of substrate solution prepared with 1.19 μL of 0.1 M 4-methylumbelliferyl phosphate (Sigma, USA), 25 μL of inactivated medium, and 75 μL of double-distilled water was added, followed by the addition of 98.81 μL of 2 M diethanolamine (pH 10, Sigma, USA). The plate was incubated overnight at 37 °C. Subsequently, the fluorescence intensity was measured using a fluorometer (SPECTRAmax […], Molecular Devices, USA) at an excitation wavelength of 360 nm and an emission wavelength of 440 nm.
To further elaborate on the above findings, small molecule compounds that could affect the ELF3-MED23 PPI were designed and synthesized. Specifically, non-essential side chains were removed from gefitnib, and compounds were designed to include both hydrogen bond donors and acceptors for the D400 and H449 residues of MED23, respectively (FIG. 4A). Specifically, chalcones and pyrazolines were selected as core scaffolds, and 25 compounds (11 chalcones and 14 pyrazoline-based compounds) were prepared. The ELF3-MED23 PPI inhibitory activity of all prepared compounds was measured using a SEAP assay.
For orientation: Reporter assays use an easily measured gene product as a stand-in for the process of interest.

The subject of assay [6] is HCT15 (HER2-positive colorectal cancer cell line). The assay can be described thus: antiproliferative effect, HCT15. The format is cell-based. Particulars: Homo sapiens, HCT-15, 72 hours. The procedure: as §1, §2

Consider `COc1ccc(C2CC(c3ccccc3O)=NN2C(C)=O)c2ccccc12` (stereo not drawn) [Compound 18, 1-[3-(2-Hydroxyphenyl)-5-(4-methoxynaphthalen-1-yl)-4,5-dihydropyrazol-1-yl]-ethanone], for which the “binding affinity to MED23 relative to candidate compound” value in assay [1] is recorded as “lower binding affinity to MED23”. The IC50 (commonly the midpoint of a concentration-inhibition curve) was 29.28 ± 0.27 µM in assay [2], above 50 µM in assay [3], 6.69 ± 0.4 µM in assay [4] and 19.7 ± 0.05 µM in assay [6]. Also, 10 µM produced 0% inhibition in assay [5].
